*1 amine or outer side, *2 acyl side, *3 side chain or, on linkers, in order; H or OH if unused. Where a SMILES comes first, the peptide text is derived from it. [ ]: non-standard residue; d: D form. The star is where a group is joined. X1 = O=C([C@H](CCc1cn(C2CCC(OC3O[C@H](CO[C@H]4O[C@H](CO[C@H]5O[C@H](CO)[C@@H](O)[C@H](O)[C@@H]5O[C@H]5O[C@H](CO)[C@@H](O)[C@H](O)[C@@H]5O)[C@@H](O)[C@H](O[C@H]5O[C@H](CO)[C@@H](O)[C@H](O)[C@@H]5O[C@H]5O[C@H](CO)[C@@H](O)[C@H](O)[C@@H]5O)[C@@H]4O)[C@@H](O)[C@H](O[C@H]4O[C@H](CO)[C@@H](O)[C@H](O)[C@@H]4O[C@H]4O[C@H](CO)[C@@H](O)[C@H](O)[C@@H]4O[C@H]4O[C@H](CO)[C@@H](O)[C@H](O)[C@@H]4O)[C@@H]3O)CC2)nn1)N[*:1])[*:2]; For = O=C*
Test system: 2G12
Assay: Binding curve and KD determination of 2G12-glycopeptide interaction (radiolabeled glycopeptide, protein G magnetic bead capture, scintillation counting)
Details: for Kd: ribosomally translated; for binding to 2G12 after truncation (in words): truncated clones, Table 6
In short: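 Radiolabeled glycopeptide (<4 pmol) from PURE-system translation with click glycosylation was incubated with 100 nM 2G12 at room temperature. Complexes were captured on protein G beads and eluted at 70° C. Bound and unbound fractions were counted by scintillation, run at least in triplicate, and KD derived from binding curves.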

[1] = Table 6 mutational analysis, radioactive bead binding assay

Row | Compound | Fmax [%] [1] [%] | Kd [1] [nM] | binding to 2G12 after truncation (in words) | Fmax [%] (Table 4, maximal fraction bound from curve fit, error = standard error of fit)
1 | CC[C@H](C)[C@H](NC(=O)[C@H](CCCNC(=N)N)NC(=O)[C@H](Cc1c[nH]cn1)NC(=O)[C@H](Cc1ccccc1)NC(=O)[C@H](CC(C)C)NC(=O)[C@H](C)NC(=O)[C@H](CC(C)C)NC(=O)[C@H](C)NC(=O)[C@H](Cc1ccc(O)cc1)NC(=O)[C@H](CCc1cn(C2CCC(OC3O[C@H](CO[C@H]4O[C@H](CO[C@H]5O[C@H](CO)[C@@H](O)[C@H](O)[C@@H]5O[C@H]5O[C@H](CO)[C@@H](O)[C@H](O)[C@@H]5O)[C@@H](O)[C@H](O[C@H]5O[C@H](CO)[C@@H](O)[C@H](O)[C@@H]5O[C@H]5O[C@H](CO)[C@@H](O)[C@H](O)[C@@H]5O)[C@@H]4O)[C@@H](O)[C@H](O[C@H]4O[C@H](CO)[C@@H](O)[C@H](O)[C@@H]4O[C@H]4O[C@H](CO)[C@@H](O)[C@H](O)[C@@H]4O[C@H]4O[C@H](CO)[C@@H](O)[C@H](O)[C@@H]4O)[C@@H]3O)CC2)nn1)NC(=O)[C@H](CC(=O)O)NC(=O)[C@@H](NC(=O)[C@@H](NC(=O)[C@H](CCC(N)=O)NC(=O)[C@H](CCc1cn(C2CCC(OC3O[C@H](CO[C@H]4O[C@H](CO[C@H]5O[C@H](CO)[C@@H](O)[C@H](O)[C@@H]5O[C@H]5O[C@H](CO)[C@@H](O)[C@H](O)[C@@H]5O)[C@@H](O)[C@H](O[C@H]5O[C@H](CO)[C@@H](O)[C@H](O)[C@@H]5O[C@H]5O[C@H](CO)[C@@H](O)[C@H](O)[C@@H]5O)[C@@H]4O)[C@@H](O)[C@H](O[C@H]4O[C@H](CO)[C@@H](O)[C@H](O)[C@@H]4O[C@H]4O[C@H](CO)[C@@H](O)[C@H](O)[C@@H]4O[C@H]4O[C@H](CO)[C@@H](O)[C@H](O)[C@@H]4O)[C@@H]3O)CC2)nn1)NC(=O)[C@H](CCCCN)NC(=O)[C@H](CC(C)C)NC(=O)[C@H](C)NC(=O)[C@H](C)NC(=O)[C@H](CCc1cn(C2CCC(OC3O[C@H](CO[C@H]4O[C@H](CO[C@H]5O[C@H](CO)[C@@H](O)[C@H](O)[C@@H]5O[C@H]5O[C@H](CO)[C@@H](O)[C@H](O)[C@@H]5O)[C@@H](O)[C@H](O[C@H]5O[C@H](CO)[C@@H](O)[C@H](O)[C@@H]5O[C@H]5O[C@H](CO)[C@@H](O)[C@H](O)[C@@H]5O)[C@@H]4O)[C@@H](O)[C@H](O[C@H]4O[C@H](CO)[C@@H](O)[C@H](O)[C@@H]4O[C@H]4O[C@H](CO)[C@@H](O)[C@H](O)[C@@H]4O[C@H]4O[C@H](CO)[C@@H](O)[C@H](O)[C@@H]4O)[C@@H]3O)CC2)nn1)NC(=O)[C@H](CCc1cn(C2CCC(OC3O[C@H](CO[C@H]4O[C@H](CO[C@H]5O[C@H](CO)[C@@H](O)[C@H](O)[C@@H]5O[C@H]5O[C@H](CO)[C@@H](O)[C@H](O)[C@@H]5O)[C@@H](O)[C@H](O[C@H]5O[C@H](CO)[C@@H](O)[C@H](O)[C@@H]5O[C@H]5O[C@H](CO)[C@@H](O)[C@H](O)[C@@H]5O)[C@@H]4O)[C@@H](O)[C@H](O[C@H]4O[C@H](CO)[C@@H](O)[C@H](O)[C@@H]4O[C@H]4O[C@H](CO)[C@@H](O)[C@H](O)[C@@H]4O[C@H]4O[C@H](CO)[C@@H](O)[C@H](O)[C@@H]4O)[C@@H]3O)CC2)nn1)NC=O)C(C)C)[C@@H](C)O)C(=O)N[C@@H](CC(C)C)C(=O)NCC(=O)N[C@@H](CO)C(=O)NCC(=O)N[C@@H](CO)C(=O)N[C@@H](CC(C)C)C(=O)NCC(=O)N[C@@H](Cc1c[nH]cn1)C(=O)N[C@@H](Cc1c[nH]cn1)C(=O)N[C@@H](Cc1c[nH]cn1)C(=O)N[C@@H](Cc1c[nH]cn1)C(=O)N[C@@H](Cc1c[nH]cn1)C(=O)N[C@@H](Cc1c[nH]cn1)C(=O)N[C@@H](CCCNC(=N)N)C(=O)N[C@@H](CC(=O)O)C(=O)N[C@@H](Cc1ccc(O)cc1)C(=O)N[C@@H](CCCCN)C(=O)N[C@@H](CC(=O)O)C(=O)N[C@@H](CC(=O)O)C(=O)N[C@@H](CC(=O)O)C(=O)N[C@@H](CC(=O)O)C(=O)N[C@@H](CCCCN)C(=O)O (stereo partly drawn) [Clone 10F2-Δ11, XXAALKXQVTDXYALALFHRIL] | 70 | 0.89 | tight binding | 
2 | XIRXRTPTSRLXSTXRGXTXNXTSXITPRNDXI [Clone 7V8] |  |  |  | 108 ± 12
3 | CC[C@H](C)[C@H](NC(=O)[C@H](CO)NC(=O)[C@H](CCCNC(=N)N)NC(=O)[C@H](CCc1cn(C2CCC(OC3O[C@H](CO[C@H]4O[C@H](CO[C@H]5O[C@H](CO)[C@@H](O)[C@H](O)[C@@H]5O[C@H]5O[C@H](CO)[C@@H](O)[C@H](O)[C@@H]5O)[C@@H](O)[C@H](O[C@H]5O[C@H](CO)[C@@H](O)[C@H](O)[C@@H]5O[C@H]5O[C@H](CO)[C@@H](O)[C@H](O)[C@@H]5O)[C@@H]4O)[C@@H](O)[C@H](O[C@H]4O[C@H](CO)[C@@H](O)[C@H](O)[C@@H]4O[C@H]4O[C@H](CO)[C@@H](O)[C@H](O)[C@@H]4O[C@H]4O[C@H](CO)[C@@H](O)[C@H](O)[C@@H]4O)[C@@H]3O)CC2)nn1)NC=O)C(=O)N1CCC[C@H]1C(=O)N[C@@H](Cc1c[nH]c2ccccc12)C(=O)N[C@@H](Cc1ccc(O)cc1)C(=O)N[C@H](C(=O)N[C@@H](Cc1ccc(O)cc1)C(=O)N[C@@H](CCCNC(=N)N)C(=O)N[C@@H](Cc1c[nH]c2ccccc12)C(=O)N[C@@H](CC(C)C)C(=O)N1CCC[C@H]1C(=O)N[C@@H](CC(N)=O)C(=O)NCC(=O)N[C@@H](CO)C(=O)NCC(=O)N[C@@H](CO)C(=O)N[C@@H](CC(C)C)C(=O)NCC(=O)N[C@@H](Cc1c[nH]cn1)C(=O)N[C@@H](Cc1c[nH]cn1)C(=O)N[C@@H](Cc1c[nH]cn1)C(=O)N[C@@H](Cc1c[nH]cn1)C(=O)N[C@@H](Cc1c[nH]cn1)C(=O)N[C@@H](Cc1c[nH]cn1)C(=O)N[C@@H](CCCNC(=N)N)C(=O)N[C@@H](CC(=O)O)C(=O)N[C@@H](Cc1ccc(O)cc1)C(=O)N[C@@H](CCCCN)C(=O)N[C@@H](CC(=O)O)C(=O)N[C@@H](CC(=O)O)C(=O)N[C@@H](CC(=O)O)C(=O)N[C@@H](CC(=O)O)C(=O)N[C@@H](CCCCN)C(=O)O)[C@@H](C)O (stereo partly drawn) [Clone 10V1-Δ19, XRSIPWYTYRWLPN] (For-[X1]RSIPWYTYRWLPNGSGSLGHHHHHHRDYKDDDDK-OH; C-terminus assumed) | 20 | ~7.5 | tight binding | 
4 | CC[C@H](C)[C@H](NC(=O)[C@H](CCC(N)=O)NC(=O)[C@H](CCCCN)NC(=O)[C@H](CC(C)C)NC(=O)[C@H](Cc1c[nH]cn1)NC(=O)[C@H](CC(C)C)NC(=O)[C@@H](NC(=O)[C@H](CC(=O)O)NC(=O)[C@H](CCc1cn(C2CCC(OC3O[C@H](CO[C@H]4O[C@H](CO[C@H]5O[C@H](CO)[C@@H](O)[C@H](O)[C@@H]5O[C@H]5O[C@H](CO)[C@@H](O)[C@H](O)[C@@H]5O)[C@@H](O)[C@H](O[C@H]5O[C@H](CO)[C@@H](O)[C@H](O)[C@@H]5O[C@H]5O[C@H](CO)[C@@H](O)[C@H](O)[C@@H]5O)[C@@H]4O)[C@@H](O)[C@H](O[C@H]4O[C@H](CO)[C@@H](O)[C@H](O)[C@@H]4O[C@H]4O[C@H](CO)[C@@H](O)[C@H](O)[C@@H]4O[C@H]4O[C@H](CO)[C@@H](O)[C@H](O)[C@@H]4O)[C@@H]3O)CC2)nn1)NC=O)[C@@H](C)O)C(=O)NCC(=O)NCC(=O)N[C@@H](CCc1cn(C2CCC(OC3O[C@H](CO[C@H]4O[C@H](CO[C@H]5O[C@H](CO)[C@@H](O)[C@H](O)[C@@H]5O[C@H]5O[C@H](CO)[C@@H](O)[C@H](O)[C@@H]5O)[C@@H](O)[C@H](O[C@H]5O[C@H](CO)[C@@H](O)[C@H](O)[C@@H]5O[C@H]5O[C@H](CO)[C@@H](O)[C@H](O)[C@@H]5O)[C@@H]4O)[C@@H](O)[C@H](O[C@H]4O[C@H](CO)[C@@H](O)[C@H](O)[C@@H]4O[C@H]4O[C@H](CO)[C@@H](O)[C@H](O)[C@@H]4O[C@H]4O[C@H](CO)[C@@H](O)[C@H](O)[C@@H]4O)[C@@H]3O)CC2)nn1)C(=O)N1CCC[C@H]1C(=O)N[C@@H](CC(N)=O)C(=O)N[C@@H](CO)C(=O)N[C@H](C(=O)N[C@H](C(=O)N[C@@H](CCC(N)=O)C(=O)N[C@@H](CCC(N)=O)C(=O)N[C@@H](CC(=O)O)C(=O)N[C@H](C(=O)N[C@@H](CCCNC(=N)N)C(=O)N[C@@H](CCc1cn(C2CCC(OC3O[C@H](CO[C@H]4O[C@H](CO[C@H]5O[C@H](CO)[C@@H](O)[C@H](O)[C@@H]5O[C@H]5O[C@H](CO)[C@@H](O)[C@H](O)[C@@H]5O)[C@@H](O)[C@H](O[C@H]5O[C@H](CO)[C@@H](O)[C@H](O)[C@@H]5O[C@H]5O[C@H](CO)[C@@H](O)[C@H](O)[C@@H]5O)[C@@H]4O)[C@@H](O)[C@H](O[C@H]4O[C@H](CO)[C@@H](O)[C@H](O)[C@@H]4O[C@H]4O[C@H](CO)[C@@H](O)[C@H](O)[C@@H]4O[C@H]4O[C@H](CO)[C@@H](O)[C@H](O)[C@@H]4O)[C@@H]3O)CC2)nn1)C(=O)N[C@H](C(=O)N[C@@H](CO)C(=O)N[C@H](C(=O)N1CCC[C@H]1C(=O)N[C@@H](Cc1ccc(O)cc1)C(=O)N[C@H](C(=O)N[C@@H](Cc1ccc(O)cc1)C(=O)N[C@H](C(=O)N[C@@H](Cc1c[nH]c2ccccc12)C(=O)N1CCC[C@H]1C(=O)NCC(=O)N[C@@H](CO)C(=O)NCC(=O)N[C@@H](CO)C(=O)N[C@@H](CC(C)C)C(=O)NCC(=O)N[C@@H](Cc1c[nH]cn1)C(=O)N[C@@H](Cc1c[nH]cn1)C(=O)N[C@@H](Cc1c[nH]cn1)C(=O)N[C@@H](Cc1c[nH]cn1)C(=O)N[C@@H](Cc1c[nH]cn1)C(=O)N[C@@H](Cc1c[nH]cn1)C(=O)N[C@@H](CCCNC(=N)N)C(=O)N[C@@H](CC(=O)O)C(=O)N[C@@H](Cc1ccc(O)cc1)C(=O)N[C@@H](CCCCN)C(=O)N[C@@H](CC(=O)O)C(=O)N[C@@H](CC(=O)O)C(=O)N[C@@H](CC(=O)O)C(=O)N[C@@H](CC(=O)O)C(=O)N[C@@H](CCCCN)C(=O)O)[C@@H](C)O)[C@@H](C)O)[C@@H](C)CC)[C@@H](C)O)C(C)C)[C@@H](C)O)[C@@H](C)CC (stereo partly drawn) [Clone 10F3-C15S] | 63 | 2.91 |  | 

— US11345912B2, “Directed evolution of multivalent glycopeptides that tightly bind to target proteins” (Brandeis University, priority 2013, dated 2022)
